Like-named read-outs stand apart in the source and are kept apart here.
Experiments:
HIV [1] = conditions: by denaturing their molecules; cited from earlier work
[2] = test system: Feline Immunodeficiency Virus (FIV); conditions: by denaturing their molecules; cited from earlier work
[3] = monkeys, 100 ppm for 2 years; cited from earlier work
[4] = mice, cited from earlier work
[5] = humans exposed in workplace; cited from earlier work
[6] = water, alcohol, and organic solvents; cited from earlier work
[7] = test system: peripheral blood lymphocytes; conditions: concentrations 300-790 mg/dl; cited from earlier work
HIV virus [8] = conditions: surfaces, 70% v/v ethanol, cited from earlier work
[9] = in vivo; cited from earlier work
HIV-1 = conditions: cited from earlier work
[10] = test system: primary human brain microvascular endothelial cells; conditions: concentrations equivalent to 79 mg/dl and 237 mg/dl; cited from earlier work
HIV [11] = conditions: HIV-positive person, 2 years after discharge; earlier viral load 60,000 copies per ml; never on antiretroviral medication
Description: (§1) A person was brought to the emergency room by ambulance. The inventor was called to intubate for respiratory support. […] They were intubated with propofol and admitted to ICU. […] During the ICU stay, they were maintained in coma with propofol infusions and some opioid analgesics and muscle paralyzers, intubated and mechanically ventilated. Fluids given were mostly Ringer's lactate and dextrose 5% in water. Due to lack of history, the ICU staff assumed they were a chronic alcoholic. […] So, they treated the patient with ethanol infusion, trying to decrease the level slowly over days.

[12] = human, in vivo
Description: as §1

HIV virus [13] = conditions: cited from earlier work
[14] = test system: human macrophage hybridoma cell line and primary monocytes; conditions: ethanol equivalent to 115, 345 and 690 mg/dl, 16 hours, then infected with HIV-1; cited from earlier work
[15] = in vivo; cited from earlier work; remark: listed apart in the source
[16] = in vivo; cited from earlier work; remark: listed apart in the source
[17] = test system: bloodstream catheter-related infections; conditions: injected preventively in central venous catheters; cited from earlier work
[18] = human, in vivo; remark: listed apart in the source
[19] = in vivo; cited from earlier work; remark: listed apart in the source
[20] = most animal species; cited from earlier work

## CO [methanol]
HIV [1]
  inactivation of HIV in vitro: inactivate
[2]
  inactivation of FIV in vitro: inactivate

## C1CO1 [ethylene oxide]
[3]
  mortality: did not have increased mortality
[4]; 100 ppm for 2 years
  mortality: did not have increased mortality
[4]; exposure to 400 ppm for 14 days
  mortality: no death
[4]; higher levels like 800 ppm
  mortality: deadly in 4 hours
[5]
  mortality: no increase in mortality
[6]
  solubility: dissolves easily

## OCCO [ethylene glycol]
HIV [1]
  inactivation of HIV in vitro: inactivate
[2]
  inactivation of FIV in vitro: inactivate

## CCO [ethanol]
[7]
  HIV DNA in peripheral blood lymphocytes and their proliferation: increase
HIV [1]
  inactivation of HIV in vitro: inactivate
[2]
  inactivation of FIV in vitro: inactivate
HIV virus [8]; in some conditions, up to
  time of contact needed for the inactivation of HIV virus: up to 4 minutes
HIV virus [8]
  time of contact needed for the inactivation of HIV virus: 2 min
[9]
  blood level at usual starting of a comatose state: 400 mg/dL
HIV-1; ethanol tested at 115, 345 and 690 mg/dl
  HIV-1 replication, another study: same results
HIV-1; human peripheral blood mononuclear cells, levels at the range of 400 mg/dl or less
  HIV-1 replication: increase the HIV-1 replication
[10]
  apoptosis induced by HIV-1 proteins: strongly potentiate
HIV [11]
  HIV viral load: undetectable
[12]
  permanent organ damage: without causing any permanent organ damage
HIV virus [13]; human albumin and plasma products at 18,000 mg/dl and higher
  damage to the product: no damage to the product was caused
HIV virus [13]; human albumin and plasma products, and even higher
  concentration used for in vitro inactivation of HIV virus: ≥ 18,000 mg/dl
[14]
  effects in the immunogenic tests of the cells: immunosuppressive effects
[15]
  factor between breath and blood concentrations: around 2300
  rise of serum concentration after loading dose: about 100 mg/dL
[16]
  placental penetration: penetrates well the placenta
[17]
  risk of bloodstream catheter-related infections: decrease the risk
[18]
  time to reach a level below 100 mg/dl: 16 to 20 h

## CC(C)O [isopropanol]
HIV [1]
  inactivation of HIV in vitro: inactivate
[2]
  inactivation of FIV in vitro: inactivate
[19]
  serum elimination half-life: 2.5 to 8 h
[20]
  median lethal dose: 4000 mg/kg
